Measurements: patent US8648066B2 (Exelixis, Inc., priority 2009, dated 2014)

Molecular target: mTOR/GbL/Raptor (mTORC1) (Homo sapiens, UniProt P42345)
Assay: mTOR/GbL/Raptor (mTORC1) ELISA assay
Assay type: biochemical
Conditions: phosphorylation of 4E-BP1; 0.2 nM mTORC1, 10 μM ATP; read-out: IC50 in this assay (mTORC1 ELISA)
Method in brief: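 ELISA read-out: phospho-4E-BP1 captured on Ni-chelate plates and detected with anti-phospho antibody plus HRP-anti-IgG luminescence. The kinase step ran 120 min at ambient temperature with 0.2 nM human mTORC1, 10 µM ATP, 50 nM His-4E-BP1, 10 mM MnCl2, pH 7.2 HEPES.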

IC50 [nM]	Compound
50 to 250	Cc1nc2ccc(-c3ccc4c(c3)CN(c3ncnc5c3CCC(C)C5)CCO4)cc2[nH]1 (centres unmarked) [Example 63, 7-(2-methyl-1H-benzimidazol-6-yl)-4-(7-methyl-5,6,7,8-tetrahydroquinazolin-4-yl)-2,3,4,5-tetrahydro-1,4-benzoxazepine]
1000 to 2000	COc1ccc2c(N3CCOc4ccc(-c5ccc6c(c5)CC(=O)N6)cc4C3)nc(C)nc2c1 [Example 524, 5-{4-[2-methyl-7-(methyloxy)quinazolin-4-yl]-2,3,4,5-tetrahydro-1,4-benzoxazepin-7-yl}-1,3-dihydro-2H-indol-2-one]
≤ 10	Cc1ncnc(N2CCOc3ccc(-c4cnc(N)s4)cc3C2)c1Cc1ccc(F)cc1 [Example 124, 5-(4-{5-[(4-fluorophenyl)methyl]-6-methylpyrimidin-4-yl}-2,3,4,5-tetrahydro-1,4-benzoxazepin-7-yl)-1,3-thiazol-2-amine]
50 to 250	Cc1nc2cc(-c3ccc4c(c3)CN(c3nc(C(C)N(C)C)nc5c3CC(C)(C)CC5)CCO4)cnc2[nH]1 (centres unmarked) [Example 356, 1-{6,6-dimethyl-4-[7-(2-methyl-3H-imidazo[4,5-b]pyridin-6-yl)-2,3-dihydro-1,4-benzoxazepin-4(5H)-yl]-5,6,7,8-tetrahydroquinazolin-2-yl}-N,N-dimethylethanamine]
250 to 1000	Cc1nc2ncc(-c3ccc4c(c3)CN(c3ncnc(C)c3C)CCO4)cc2[nH]1 [Example 257, 4-(5,6-dimethylpyrimidin-4-yl)-7-(2-methyl-1H-imidazo[4,5-b]pyridin-6-yl)-2,3,4,5-tetrahydro-1,4-benzoxazepine]
≤ 10	Cc1nc2ncc(-c3ccc4c(c3)CN(c3nc(CNC5CC5)nc5c3CC(C)(C)CC5)CCO4)cc2[nH]1 [Example 599, N-({6,6-dimethyl-4-[7-(2-methyl-1H-imidazo[4,5-b]pyridin-6-yl)-2,3-dihydro-1,4-benzoxazepin-4(5H)-yl]-5,6,7,8-tetrahydroquinazolin-2-yl}methyl)cyclopropanamine]
≤ 10	Cc1nc2ncc(-c3ccc4c(c3)CN(c3ncnc5c3CC(C)(C)CC5)CCO4)cc2[nH]1 [Example 234, 4-(6,6-dimethyl-5,6,7,8-tetrahydroquinazolin-4-yl)-7-(2-methyl-1H-imidazo[4,5-b]pyridin-6-yl)-2,3,4,5-tetrahydro-1,4-benzoxazepine]
250 to 1000	c1ccc2c(N3CCOc4ccc(-c5ccc6nc(C7CC7)[nH]c6c5)cc4C3)ccnc2c1 [Example 199, 7-(2-cyclopropyl-1H-benzimidazol-6-yl)-4-quinolin-4-yl-2,3,4,5-tetrahydro-1,4-benzoxazepine]
10 to 50	Cc1nc(C)c(CC2CC2)c(N2CCOc3ccc(-c4cnc5nc(C6CC6)[nH]c5c4)cc3C2)n1 [Example 547, 7-(2-cyclopropyl-1H-imidazo[4,5-b]pyridin-6-yl)-4-[5-(cyclopropylmethyl)-2,6-dimethylpyrimidin-4-yl]-2,3,4,5-tetrahydro-1,4-benzoxazepine]
≤ 10	CCN(C)Cc1nc2c(c(N3CCOc4ccc(-c5cnc6nc(C)[nH]c6c5)cc4C3)n1)CC(C)(C)CC2 [Example 605, N-({6,6-dimethyl-4-[7-(2-methyl-1H-imidazo[4,5-b]pyridin-6-yl)-2,3-dihydro-1,4-benzoxazepin-4(5H)-yl]-5,6,7,8-tetrahydroquinazolin-2-yl}methyl)-N-methylethanamine]
250 to 1000	COC(=O)Nc1nc2ccc(-c3ccc4c(c3)CN(c3nc(CN(C)C)nc5c3CC(C)(C)CC5)CCO4)cc2[nH]1 [Example 579, methyl [6-(4-{2-[(dimethylamino)methyl]-6,6-dimethyl-5,6,7,8-tetrahydroquinazolin-4-yl}-2,3,4,5-tetrahydro-1,4-benzoxazepin-7-yl)-1H-benzimidazol-2-yl]carbamate]

Continued, molecule first:

Compound	IC50 [nM]
CC1(C)CCc2ncnc(N3CCOc4ccc(-c5cnc(N)c(S(=O)(=O)NCC6CNC6)c5)cc4C3)c2C1 [Example 415, 2-amino-N-(azetidin-3-ylmethyl)-5-[4-(6,6-dimethyl-5,6,7,8-tetrahydroquinazolin-4-yl)-2,3,4,5-tetrahydreo-1,4-benzoxazepin-7-yl]pyridine-3-sulfonamide]	10 to 50
CC1(C)CCc2ncnc(N3CCOc4ccc(-c5cnc(O)c(S(=O)(=O)N6CC[C@H](N)C6)c5)cc4C3)c2C1 [Example 453, 3-{[(3S)-3-aminopyrrolidin-1-yl]sulfonyl}-5-[4-(6,6-dimethyl-5,6,7,8-tetrahydroquinazolin-4-yl)-2,3,4,5-tetrahydro-1,4-benzoxazepin-7-yl]pyridin-2-ol]	50 to 250
CC1(C)CCc2ncnc(N3CCOc4ccc(-c5cnc(N)c(S(=O)(=O)NCC(O)CO)c5)cc4C3)c2C1 (centres unmarked) [Example 402, 2-amino-N-(2,3-dihydroxypropyl)-5-[4-(6,6-dimethyl-5,6,7,8-tetrahydroquinazolin-4-yl)-2,3,4,5-tetrahydro-1,4-benzoxazepin-7-yl]pyridine-3-sulfonamide]	≤ 10
CC1=Cc2ncnc(N3CCOc4ccc(-c5cnc(N)c(S(=O)(=O)N6CC[C@@H](N)C6)c5)cc4C3)c2CC1(C)C [Example 447, 3-{[(3R)-3-aminopyrrolidin-1-yl]sulfonyl}-5-[4-(6,6,7-trimethyl-5,6-dihydroquinazolin-4-yl)-2,3,4,5-tetrahydro-1,4-benzoxazepin-7-yl]pyridin-2-amine]	≤ 10
CC1(C)CCc2ncnc(N3CCOc4ccc(-c5cnc(N)c(S(=O)(=O)NC[C@H]6CCCNC6)c5)cc4C3)c2C1 [Example 389, 2-amino-5-[4-(6,6-dimethyl-5,6,7,8-tetrahydroquinazolin-4-yl)-2,3,4,5-tetrahydro-1,4-benzoxazepin-7-yl]-N-[(3S)-piperidin-3-ylmethyl]pyridine-3-sulfonamide]	10 to 50
CC1(C)CCc2ncnc(N3CCOc4ccc(-c5cnc(N)c(S(=O)(=O)NCC6CCNCC6)c5)cc4C3)c2C1 [Example 378, 2-amino-5-[4-(6,6-dimethyl-5,6,7,8-tetrahydroquinazolin-4-yl)-2,3,4,5-tetrahydro-1,4-benzoxazepin-7-yl]-N-(piperidin-4-ylmethyl)pyridine-3-sulfonamide]	50 to 250
Cc1nc2ncc(-c3ccc4c(c3)CN(c3ncnc5c3CCC(C(C)O)C5)CCO4)cc2[nH]1 (centres unmarked) [Example 340, 1-{4-[7-(2-methyl-1H-imidazo[4,5-b]pyridin-6-yl)-2,3-dihydro-1,4-benzoxazepin-4(5H)-yl]-5,6,7,8-tetrahydroquinazolin-7-yl}ethanol]	50 to 250
Cc1nc2ncc(-c3ccc4c(c3)CN(c3nc(CN5CCOCC5)nc5c3CC(C)(C)CC5)CCO4)cc2[nH]1 [Example 498, 4-[6,6-dimethyl-2-(morpholin-4-ylmethyl)-5,6,7,8-tetrahydroquinazolin-4-yl]-7-(2-methyl-1H-imidazo[4,5-b]pyridin-6-yl)-2,3,4,5-tetrahydro-1,4-benzoxazepine]	50 to 250
Cc1c(NCC2CCN(C)CC2)ncnc1N1CCOc2ccc(-c3cnc4nc(C5CC5)[nH]c4c3)cc2C1 [Example 533, 6-[7-(2-cyclopropyl-1H-imidazo[4,5-b]pyridin-6-yl)-2,3-dihydro-1,4-benzoxazepin-4(5H)-yl]-5-methyl-N-[(1-methylpiperidin-4-yl)methyl]pyrimidin-4-amine]	≥ 2000
